Patent US10526337B2, “Heteroaryl derivative or pharmaceutically acceptable salt thereof, preparation method therefor, and pharmaceutical composition for preventing or treating diseases associated with PI3 kinases, containing same as active ingredient” (KOREA RESEARCH INSTITUTE OF CHEMICAL TECHNOLOGY, priority 2015, dated 2020)

What was measured:
Conditions in all cases: ATP=10 uM, sample concentration=100 nM
[1] = biological target: T1, PI3 Kinase (p110δ/p85α) (h) (Homo sapiens, UniProt O00329); assay: Inhibition of phosphatidylinositol 3-kinase delta (PI3K δ), pAkt Western blotting in IgM-stimulated Raji cells; type: cell-based
T1 construct: endogenous in cells; host or cells: Raji
Outline: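 Raji cells were treated with compound for 1.5 h, then stimulated with 0.25 μg/mL IgM for 30 min to activate PI3Kδ. Lysates were Western blotted for pAkt (Ser473 or Thr308) with ECL detection. Conditions stated: ATP=10 uM, sample concentration=100 nM.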

[2] = biological target: T2, PI3 Kinase (p110β/p86α) (h) (Homo sapiens, UniProt P42338); assay: Inhibition of phosphatidylinositol 3-kinase beta (PI3K β), pAkt Western blotting in LPA-stimulated PC3 cells; type: cell-based
T2 construct: endogenous in cells; host or cells: PC3
T2 sequence (P42338 whole entry): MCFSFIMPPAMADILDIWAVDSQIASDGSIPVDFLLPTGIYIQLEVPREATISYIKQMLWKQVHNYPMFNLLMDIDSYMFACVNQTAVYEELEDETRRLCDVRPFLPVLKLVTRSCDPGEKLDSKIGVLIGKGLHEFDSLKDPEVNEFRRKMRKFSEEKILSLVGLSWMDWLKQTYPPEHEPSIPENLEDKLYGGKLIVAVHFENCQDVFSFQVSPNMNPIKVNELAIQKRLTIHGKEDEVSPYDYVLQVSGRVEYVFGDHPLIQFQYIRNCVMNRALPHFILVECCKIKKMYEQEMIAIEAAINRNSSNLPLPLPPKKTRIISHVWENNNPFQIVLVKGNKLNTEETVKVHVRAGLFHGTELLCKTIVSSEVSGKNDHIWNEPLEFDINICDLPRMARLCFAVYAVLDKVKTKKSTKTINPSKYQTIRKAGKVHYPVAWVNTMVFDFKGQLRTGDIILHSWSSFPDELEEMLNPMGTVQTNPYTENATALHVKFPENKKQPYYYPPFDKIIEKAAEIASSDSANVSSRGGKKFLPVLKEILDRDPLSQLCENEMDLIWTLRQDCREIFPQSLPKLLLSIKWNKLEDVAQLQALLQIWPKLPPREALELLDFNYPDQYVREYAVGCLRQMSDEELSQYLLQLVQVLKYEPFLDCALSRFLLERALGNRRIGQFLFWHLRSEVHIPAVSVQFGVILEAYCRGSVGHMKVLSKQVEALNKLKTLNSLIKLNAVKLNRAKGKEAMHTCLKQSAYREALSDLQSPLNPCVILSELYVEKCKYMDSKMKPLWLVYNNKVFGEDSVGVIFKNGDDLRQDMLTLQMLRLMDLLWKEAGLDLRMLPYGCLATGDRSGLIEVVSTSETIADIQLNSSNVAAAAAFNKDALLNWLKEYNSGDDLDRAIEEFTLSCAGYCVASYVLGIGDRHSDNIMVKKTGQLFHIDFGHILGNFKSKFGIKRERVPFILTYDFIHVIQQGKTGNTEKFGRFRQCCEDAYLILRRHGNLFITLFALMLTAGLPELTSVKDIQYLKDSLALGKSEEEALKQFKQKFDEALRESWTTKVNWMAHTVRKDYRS
T2 sequence (P27986 whole entry partner): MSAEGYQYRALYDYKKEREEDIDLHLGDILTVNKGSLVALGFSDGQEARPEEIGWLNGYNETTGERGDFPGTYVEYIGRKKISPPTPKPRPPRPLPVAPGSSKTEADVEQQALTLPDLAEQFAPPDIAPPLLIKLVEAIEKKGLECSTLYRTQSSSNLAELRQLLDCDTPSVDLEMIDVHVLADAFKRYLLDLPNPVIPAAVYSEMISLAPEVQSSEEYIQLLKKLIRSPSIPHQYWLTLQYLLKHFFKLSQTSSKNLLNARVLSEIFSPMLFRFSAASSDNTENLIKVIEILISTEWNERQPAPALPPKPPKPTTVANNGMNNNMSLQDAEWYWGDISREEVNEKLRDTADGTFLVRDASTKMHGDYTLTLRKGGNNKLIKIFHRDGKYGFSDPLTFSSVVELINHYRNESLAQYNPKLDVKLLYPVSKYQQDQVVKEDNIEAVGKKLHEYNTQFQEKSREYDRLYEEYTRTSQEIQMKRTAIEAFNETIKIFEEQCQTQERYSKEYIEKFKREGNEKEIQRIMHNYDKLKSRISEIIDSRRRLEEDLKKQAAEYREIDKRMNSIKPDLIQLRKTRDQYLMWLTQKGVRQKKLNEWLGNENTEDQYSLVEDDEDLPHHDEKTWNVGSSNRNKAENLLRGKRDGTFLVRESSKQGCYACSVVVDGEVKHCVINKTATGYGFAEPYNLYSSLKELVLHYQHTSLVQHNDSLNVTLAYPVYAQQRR
Protocol: (§1) The stimulated cells were transferred in a 1.5 mL tube, followed by centrifugation at 3000 rpm for 1 minute. 100 μL of RIPA buffer (radioimmunoprecipitation assay buffer, 50 mM Tris-HCl, 5 mM EDTA, 150 mM NaCl, 1% NP-40, 1 mM PMSF, pH 8.0; ELPIS, Korea) was added thereto, which was stored in a 4° C. refrigerator for 12 hours. Centrifugation was performed at 4° C. at 14,000 rpm for 20 minutes. The supernatant was transferred into a new 1.5 mL tube. Protein was quantified by BCA (bicinchoninic acid) method and samples were prepared. The composition of the sample was as follows: sample buffer (ELPIS, EBA-1052) 5×, protein 10 μg, and 1× sample buffer to make the total volume 20 μL. The sample was heated at 100° C. for 5 minutes. The evaporated water vapor was condensed in a refrigerator. The liquid stained on the wall was fallen down by centrifugation for a few seconds. The sample proceeded to 10% SDS (Sodium Dodecyl Sulfate) acrylamide gel for separation. The separated protein was transferred onto PVDF (poly-vinyl difluoride) membrane, followed by reaction with pAkt (phospho protein kinase B) antibody (Ser473 or Thr308; Cell signaling, 9271s or 13038s) for 12 hours at 4° C. The membrane was washed with TBST (Tris-Buffered Saline with Tween 20, 10 mM Tris-HCl, pH 7.5, 150 mM NaCl, 0.1% Tween-20) three times for 5 minutes each, to which the secondary antibody (rabbit antibody, Santacruz, sc-2004) was added, followed by reaction at room temperature for 2 hours. The membrane was washed with TBST three times for 10 minutes each, to which ECL (enhanced chemiluminescence, Thermo, NCI34095KR) was sprayed. Bands were investigated by using LAS-3000.
The inhibition of phosphatidylinositol 3 kinase beta (PI3K β) by those compounds prepared in Examples 1˜98 was investigated by the following experiment. The inhibition activity of each compound was measured in the following conditions: ATP=10 uM, and sample concentration=100 nM.
Human prostate cancer cells (PC3 cells) cultured in DMEM (Dulbecco's Modified Eagle Medium, Hyclon, SH30243.01) supplemented with 10% fetal bovine serum (Hyclon, USA) were distributed in a 12-well plate at the density of 1,000,000 cells/well. The cells were stabilized in a 37° C. CO2 for 24 hours and then treated with each compound for 1 and half hours. The cells were treated with 10 ng/mL of LPA (lysophosphatidic acid, 10 μg/mL; R&D, 2150-05) to increase the intracellular activity of PI3K beta. 5 minutes later, the medium was discarded and the cells were washed with cold PBS (phosphate buffered saline, Gibco, 14190-250). PBS was then eliminated completely by using a pipette. Western blotting was performed according to the same manner as described in step 2 of Experimental Example 1 to evaluate the intracellular PI3K beta activity.

PI3 Kinase (p120γ) (h) = biological target: T3, PI3 Kinase (p120γ) (h) (Homo sapiens, UniProt P48736); assay: Inhibition of phosphatidylinositol 3-kinase gamma (PI3K γ), pAkt Western blotting in C5a-stimulated RAW264.7 macrophages; type: cell-based, mouse
T3 construct: endogenous in cells; host or cells: RAW264.7
T3 sequence (P48736 whole entry): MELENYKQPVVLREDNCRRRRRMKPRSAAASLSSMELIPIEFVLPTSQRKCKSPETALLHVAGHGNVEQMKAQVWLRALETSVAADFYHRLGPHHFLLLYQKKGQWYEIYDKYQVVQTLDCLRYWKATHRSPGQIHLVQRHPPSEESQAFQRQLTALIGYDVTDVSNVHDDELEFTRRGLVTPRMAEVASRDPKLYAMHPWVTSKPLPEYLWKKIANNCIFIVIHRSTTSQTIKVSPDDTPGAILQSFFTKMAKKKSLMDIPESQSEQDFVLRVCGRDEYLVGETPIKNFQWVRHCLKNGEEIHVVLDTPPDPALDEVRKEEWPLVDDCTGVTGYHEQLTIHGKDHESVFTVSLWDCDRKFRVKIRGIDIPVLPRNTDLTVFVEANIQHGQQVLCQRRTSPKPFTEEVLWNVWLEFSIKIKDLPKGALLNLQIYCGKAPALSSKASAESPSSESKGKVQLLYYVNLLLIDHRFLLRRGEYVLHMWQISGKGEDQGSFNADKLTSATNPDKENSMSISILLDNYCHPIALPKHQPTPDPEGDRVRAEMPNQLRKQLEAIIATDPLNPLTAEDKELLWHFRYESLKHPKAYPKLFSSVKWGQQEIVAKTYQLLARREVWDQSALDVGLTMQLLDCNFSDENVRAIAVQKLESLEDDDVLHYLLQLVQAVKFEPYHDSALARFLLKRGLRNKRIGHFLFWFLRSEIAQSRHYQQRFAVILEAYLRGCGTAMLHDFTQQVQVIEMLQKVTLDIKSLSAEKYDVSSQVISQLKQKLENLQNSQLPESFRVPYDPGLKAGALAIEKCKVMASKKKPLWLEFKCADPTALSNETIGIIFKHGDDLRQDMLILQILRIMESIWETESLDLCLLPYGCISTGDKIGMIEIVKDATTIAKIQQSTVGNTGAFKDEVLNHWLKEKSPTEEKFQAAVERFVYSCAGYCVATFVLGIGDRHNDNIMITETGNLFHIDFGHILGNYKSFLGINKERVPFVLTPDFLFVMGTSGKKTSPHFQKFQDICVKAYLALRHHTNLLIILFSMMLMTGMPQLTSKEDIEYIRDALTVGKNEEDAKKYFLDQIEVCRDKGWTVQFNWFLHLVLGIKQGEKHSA
Outline: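 Enzyme: PI3Kγ activity measured at ATP=10 uM with compound at 100 nM. Cellular: RAW264.7 macrophages treated with compound 1.5 h, then stimulated with 10 ng/mL C5a for 5 min; lysates (10 μg protein) probed by Western blot for pAkt (Ser473 or Thr308), ECL detection.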

[3] = biological target: T4, PI3 Kinase (p110α/p85α) (h) (Homo sapiens, UniProt P42336); assay: Inhibition of phosphatidylinositol 3-kinase alpha (PI3K α), pAkt Western blotting in EGF-stimulated MDA-MB-453 cells; type: cell-based
T4 construct: endogenous in cells; host or cells: MDA-MB-453
T4 sequence (P42336 whole entry): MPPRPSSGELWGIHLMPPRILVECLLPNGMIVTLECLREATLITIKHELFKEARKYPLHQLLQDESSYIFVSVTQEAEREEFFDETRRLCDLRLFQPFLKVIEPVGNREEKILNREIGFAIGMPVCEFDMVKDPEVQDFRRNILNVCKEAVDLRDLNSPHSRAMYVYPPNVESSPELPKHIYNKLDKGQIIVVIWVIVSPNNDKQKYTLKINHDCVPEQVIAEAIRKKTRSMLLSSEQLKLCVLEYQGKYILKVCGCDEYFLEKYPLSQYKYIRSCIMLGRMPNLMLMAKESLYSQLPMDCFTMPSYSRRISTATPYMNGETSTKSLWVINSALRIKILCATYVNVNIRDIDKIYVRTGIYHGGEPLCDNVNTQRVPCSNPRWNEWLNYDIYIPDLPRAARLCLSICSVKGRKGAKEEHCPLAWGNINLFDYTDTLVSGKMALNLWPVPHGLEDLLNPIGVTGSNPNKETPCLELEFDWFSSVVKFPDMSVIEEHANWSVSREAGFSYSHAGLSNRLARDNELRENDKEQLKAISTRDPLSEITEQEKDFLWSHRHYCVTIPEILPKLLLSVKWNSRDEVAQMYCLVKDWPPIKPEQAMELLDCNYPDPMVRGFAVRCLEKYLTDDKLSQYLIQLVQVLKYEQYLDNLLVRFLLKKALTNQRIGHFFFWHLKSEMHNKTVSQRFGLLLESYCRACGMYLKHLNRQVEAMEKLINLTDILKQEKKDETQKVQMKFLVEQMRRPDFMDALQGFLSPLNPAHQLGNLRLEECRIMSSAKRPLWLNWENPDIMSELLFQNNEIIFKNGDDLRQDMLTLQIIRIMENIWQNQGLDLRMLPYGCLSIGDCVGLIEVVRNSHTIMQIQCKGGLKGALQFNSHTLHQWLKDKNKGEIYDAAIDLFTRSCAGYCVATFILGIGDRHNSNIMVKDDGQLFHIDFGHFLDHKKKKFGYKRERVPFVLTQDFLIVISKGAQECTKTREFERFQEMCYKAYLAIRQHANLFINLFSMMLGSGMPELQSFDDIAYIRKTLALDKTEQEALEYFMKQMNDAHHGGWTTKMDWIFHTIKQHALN
T4 sequence (P27986 2-724 partner limits assumed): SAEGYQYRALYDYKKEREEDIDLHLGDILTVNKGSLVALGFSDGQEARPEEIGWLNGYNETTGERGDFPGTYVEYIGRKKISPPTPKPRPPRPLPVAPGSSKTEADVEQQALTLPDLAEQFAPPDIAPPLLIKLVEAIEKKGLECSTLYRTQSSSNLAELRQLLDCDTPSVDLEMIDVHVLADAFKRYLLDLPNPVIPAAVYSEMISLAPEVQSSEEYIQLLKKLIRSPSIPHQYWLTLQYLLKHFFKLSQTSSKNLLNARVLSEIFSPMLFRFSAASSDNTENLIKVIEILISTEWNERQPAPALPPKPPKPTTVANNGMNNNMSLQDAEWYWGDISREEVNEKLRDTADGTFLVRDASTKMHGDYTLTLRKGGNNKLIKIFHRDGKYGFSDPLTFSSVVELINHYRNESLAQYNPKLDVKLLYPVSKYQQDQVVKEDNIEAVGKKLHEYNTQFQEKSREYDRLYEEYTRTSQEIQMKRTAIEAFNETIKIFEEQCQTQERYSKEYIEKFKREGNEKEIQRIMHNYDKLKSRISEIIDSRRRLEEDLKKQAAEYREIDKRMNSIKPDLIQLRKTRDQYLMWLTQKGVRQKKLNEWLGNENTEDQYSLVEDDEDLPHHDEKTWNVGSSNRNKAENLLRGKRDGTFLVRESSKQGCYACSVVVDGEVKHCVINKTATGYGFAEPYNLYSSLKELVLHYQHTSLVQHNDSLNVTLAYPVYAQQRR
Protocol: The inhibition of phosphatidylinositol 3 kinase alpha (PI3K α) by those compounds prepared in Examples 1˜98 was investigated by the following experiment. The inhibition activity of each compound was measured in the following conditions: ATP=10 uM, and sample concentration=100 nM.
Human breast cancer cells (MDA-MB-453) cultured in DMEM (Dulbecco's Modified Eagle Medium, Hyclon, SH30243.01) supplemented with 10% fetal bovine serum (Hyclon, USA) were distributed in a 12-well plate at the density of 1,000,000 cells/well. The cells were stabilized in a 37° C. CO2 for 24 hours and then treated with each compound for 1 and half hours. The cells were treated with 10 ng/mL of EGF (Epidermal Growth Factor, 10 μg/mL; R&D, 2150-C5) to increase the intracellular activity of PI3K alpha. 5 minutes later, the medium was discarded and the cells were washed with cold PBS (phosphate buffered saline, Gibco, 14190-250). PBS was then eliminated completely by using a pipette. Western blotting was performed as described in step 2 to evaluate the intracellular PI3K alpha activity.
as §1

Row | SMILES | IC50 [1] [nM] | IC50 [2] [nM] | IC50 (PI3 Kinase (p120γ) (h)) [nM] | IC50 [3] [nM]
1 | C[C@H](Nc1ncnc2c1C(=O)N(C1CCCC1)CN2)c1cc2cccc(Cl)c2c(=O)n1-c1ccccc1 [Example 63, (S)-5-(1-(8-chloro-1-oxo-2-phenyl-1,2-dihydroisoquinoline-3-yl)ethylamino)-3-cyclopentyl-2,3-dihydropyrimido[4,5-d]pyrimidine-4(1H)-one] | > 500 | > 500 | > 500 | > 500
2 | CC[C@H](Nc1ncnc2[nH]ccc(=O)c12)c1nc2cccc(F)c2c(=O)n1-c1ccccc1 [Example 12, (S)-4-((1-(5-fluoro-4-oxo-3-phenyl-3,4-dihydroquinazoline-2-yl)propyl)amino)pyrido[2,3-d]pyrimidine-5(8H)-one] | < 10 | > 500 | 10 to 500 | > 500
3 | O=c1nc[nH]c2ncnc(N3CCC[C@H]3c3nn4ccc(Cl)c4c(=O)n3-c3ccccc3)c12 [Example 79, (S)-5-(2-(5-chloro-4-oxo-3-phenyl-3,4-dihydropyrrolo[2,1-f][1,2,4]triazine-2-yl)pyrrolidine-1-yl)pyrimido[4,5-d]pyrimidine-4(1H)-one] | > 500 | > 500 | > 500 | > 500
4 | C[C@H](Nc1nc(N)nc2[nH]cnc(=O)c12)c1cc2cccc(Cl)c2c(=O)n1-c1ccccc1 [Example 85, (S)-7-amino-5-(1-(8-chloro-1-oxo-2-phenyl-1,2-dihydroisoquinoline-3-yl)ethylamino)pyrimido[4,5-d]pyrimidine-4(1H)-one] | 10 to 500 | > 500 | 10 to 500 | > 500
5 | C[C@H](Nc1ncnc2[nH]cc(Cl)c(=O)c12)c1cc2cccc(Cl)c2c(=O)n1-c1ccccc1 [Example 23, (S)-6-chloro-4-((1-(8-chloro-1-oxo-2-phenyl-1,2-dihydroisoquinoline-3-yl)ethyl)amino)pyrido[2,3-d]pyrimidine-5(8H)-one] | < 10 | > 500 | 10 to 500 | > 500
6 | O=c1cc[nH]c2ncnc(N3CCC[C@H]3c3cc4cccc(Cl)c4c(=O)n3-c3ccccc3)c12 [Example 14, (S)-4-(2-(8-chloro-1-oxo-2-phenyl-1,2-dihydroisoquinoline-3-yl)pyrrolidine-1-yl)pyrido[2,3-d]pyrimidine-5(8H)-one] | 10 to 500 | > 500 | 10 to 500 | > 500
7 | O=c1cc[nH]c2ncnc(N3CCC[C@H]3c3nc4cccc(Cl)c4c(=O)n3-c3ccccc3)c12 [Example 13, (S)-4-(2-(5-chloro-4-oxo-3-phenyl-3,4-dihydroquinazoline-2-yl)pyrrolidine-1-yl)pyrido[2,3-d]pyrimidine-5(8H)-one] | < 10 | > 500 | 10 to 500 | > 500
8 | C[C@H](Nc1ncnc2[nH]ccc(=O)c12)c1nc2cccc(Cl)c2c(=O)n1-c1cc(F)cc(F)c1 [Example 4, (S)-4-((1-(5-chloro-3-(3,5-difluorophenyl)-4-oxo-3,4-dihydroquinazoline-2-yl)ethyl)amino)pyrido[2,3-d]pyrimidine-5(8H)-one] | < 10 | > 500 | 10 to 500 | > 500
9 | C[C@H](Nc1ncnc2c1C(=O)CCN2)c1c(Cl)c2cccc(Cl)c2c(=O)n1-c1ccccc1 [Example 98, (S)-4-((1-(4,8-dichloro-1-oxo-2-phenyl-1,2-dihydroisoquinoline-3-yl)ethyl)amino)-7,8-dihydropyrido[2,3-d]pyrimidine-5(6H)-one] | < 10 | 10 to 500 | 10 to 500 | > 500
10 | C[C@H](Nc1ncnc2[nH]ccc(=O)c12)c1cc2ccccc2nc1-c1ccccc1 [Example 6, (S)-4-((1-(2-phenylquinoline-3-yl)ethyl)amino)pyrido[2,3-d]pyrimidine-5(8H)-one] | < 10 | > 500 | 10 to 500 | > 500

Continued, values first:

Row | IC50 [1] [nM] | IC50 [2] [nM] | IC50 (PI3 Kinase (p120γ) (h)) [nM] | IC50 [3] [nM] | SMILES
11 | < 10 | > 500 | 10 to 500 | > 500 | C[C@H](Nc1ncnc2[nH]ccc(=O)c12)c1c(Cl)c2cccc(Cl)c2c(=O)n1-c1ccccc1 [Example 10, (S)-4-((1-(4,8-dichloro-1-oxo-2-phenyl-1,2-dihydroisoquinoline-3-yl)ethyl)amino)pyrido[2,3-d]pyrimidine-5(8H)-one]
12 | < 10 | 10 to 500 | 10 to 500 | 10 to 500 | C[C@H](Nc1nc(N)nc2[nH]ccc(=O)c12)c1cc2cccc(Cl)c2c(=O)n1-c1ccccc1 [Example 15, (S)-2-amino-4-((1-(8-chloro-1-oxo-2-phenyl-1,2-dihydroisoquinoline-3-yl)ethyl)amino)pyrido[2,3-d]pyrimidine-5(8H)-one]
13 | < 10 | > 500 | 10 to 500 | > 500 | C[C@H](Nc1ncnc2[nH]cc(F)c(=O)c12)c1cc2cccc(Cl)c2c(=O)n1-c1ccccc1 [Example 20, (S)-4-((1-(8-chloro-1-oxo-2-phenyl-1,2-dihydroisoquinoline-3-yl)ethyl)amino)-6-fluoropyrido[2,3-d]pyrimidine-5(8H)-one]
14 | < 10 | 10 to 500 | 10 to 500 | > 500 | C[C@H](Nc1ncnc2[nH]ccc(=O)c12)c1nc2cccc(Cl)c2c(=O)n1-c1ccccc1 [Example 1, (S)-4-((1-(5-chloro-4-oxo-3-phenyl-3,4-dihydroquinazoline-2-yl)ethyl)amino)pyrido[2,3-d]pyrimidine-5(8H)-one]
15 | < 10 | > 500 | 10 to 500 | > 500 | C[C@H](Nc1ncnc2[nH]ccc(=O)c12)c1c(F)c2cccc(Cl)c2c(=O)n1-c1ccccc1 [Example 11, (S)-4-((1-(8-chloro-4-fluoro-1-oxo-2-phenyl-1,2-dihydroisoquinoline-3-yl)ethyl)amino)pyrido[2,3-d]pyrimidine-5(8H)-one]
16 | < 10 | > 500 | 10 to 500 | > 500 | C[C@H](Nc1ncnc2[nH]ccc(=O)c12)c1nc2ccc(F)cc2c(=O)n1-c1ccccc1 [Example 29, (S)-4-((1-(6-fluoro-4-oxo-3-phenyl-3,4-dihydroquinazoline-2-yl)ethyl)amino)pyrido[2,3-d]pyrimidine-5(8H)-one]
17 | < 10 | 10 to 500 | 10 to 500 | > 500 | C[C@H](Nc1ncnc2[nH]ccc(=O)c12)c1cc2cccc(Cl)c2c(=O)n1-c1ccccc1 [Example 5, (S)-4-((1-(8-chloro-1-oxo-2-phenyl-1,2-dihydroisoquinoline-3-yl)ethyl)amino)pyrido[2,3-d]pyrimidine-5(8H)-one]
